From the supplement of paper PMC10307832

Assays:
Assay in all cases: relative viability (nuclei count vs DMSO), 5 days (fraction); higher = more cells survive
Bromopyruvate = compound: C(C(=O)C(=O)O)Br [Bromopyruvate]
In short: (§1)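 Vehicle-anchored 1536-well plates of lung cancer cell lines, held overnight at 37 °C, were pinned with five library-drug doses (not always all listed) spaced by √10. No medium change followed over the next 5 days, after which the cells were fixed, permeabilised and Hoechst-stained together and imaged at 4×. Nuclei were counted with MetaXpress, and viability is treated-well nuclei over vehicle-well nuclei, taken as a median across plates. Plates passed with control CV below 25% and at least one doubling.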

Bicalutamide = compound: CC(O)(CS(=O)(=O)c1ccc(F)cc1)C(=O)Nc1ccc(C#N)c(C(F)(F)F)c1 [Bicalutamide]
In short: as §1

[1] = compound: C(C(=O)C(=O)O)Br [Bromopyruvate] + CC1(C)CCC(c2ccc(Cl)cc2)=C(CN2CCN(c3ccc(C(=O)NS(=O)(=O)c4ccc(N[C@H](CCN5CCOCC5)CSc5ccccc5)c(S(=O)(=O)C(F)(F)F)c4)cc3)CC2)C1 [Navitoclax] (partner 0.5 µM)
In short: (§2)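 Relative viability equals treated-well nuclei counts divided by vehicle-well nuclei counts. Counts came from 4× images of lung cancer cell lines grown in 1536-well plates for 5 days after pin-tool dosing on the day after seeding. Dosing used one drug alone or a fixed anchor-drug dose plus five library-drug doses (not always all listed) in √10 steps, and values are medians of duplicate plates.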

[2] = compound: CC(O)(CS(=O)(=O)c1ccc(F)cc1)C(=O)Nc1ccc(C#N)c(C(F)(F)F)c1 [Bicalutamide] + N=C(N)NC(=N)NCCc1ccccc1 [Phenformin] (partner 250 µM)
In short: as §2

Cell Line | relative viability (Bromopyruvate; 1 µM) | relative viability (Bromopyruvate; 3.162 µM) | relative viability (Bromopyruvate; 10 µM) | relative viability (Bromopyruvate; 31.62 µM) | relative viability (Bromopyruvate; 100 µM) | relative viability (Bicalutamide; 0.08 µM) | relative viability (Bicalutamide; 0.253 µM) | relative viability (Bicalutamide; 0.8 µM) | relative viability (Bicalutamide; 2.53 µM) | relative viability ([1]; first compound 1 µM) | relative viability ([1]; first compound 3.162 µM) | relative viability ([1]; first compound 10 µM) | relative viability ([1]; first compound 31.62 µM) | relative viability ([1]; first compound 100 µM) | relative viability ([2]; first compound 0.08 µM) | relative viability ([2]; first compound 0.253 µM) | relative viability ([2]; first compound 0.8 µM) | relative viability ([2]; first compound 2.53 µM)
LU99A | 0.852 | 0.913 | 0.977 | 0.967 | 1.03 | 0.926 | 0.885 | 1.22 | 0.755 | 0.767 | 0.696 | 0.834 | 0.558 | 0.411 | 0.917 | 0.715 | 0.997 | 0.663
NCI-H2170 | 0.938 | 0.947 | 0.95 | 0.969 | 1.01 | 0.916 | 0.931 | 1.1 | 0.987 | 0.549 | 0.533 | 0.577 | 0.541 | 0.57 | 0.418 | 0.412 | 0.429 | 0.47
NCI-H2405 | 1.06 | 0.968 | 0.984 | 0.873 | 1.05 | 1.07 | 0.968 | 1.18 | 0.926 | 0.903 | 0.94 | 0.971 | 0.774 | 1.15 | 0.436 | 0.358 | 0.468 | 0.415
NCI-H2009 | 0.975 | 1.04 | 0.96 | 0.925 | 0.734 | 1.11 | 1.05 | 1.04 | 0.927 | 1.15 | 1.26 | 1.22 | 1.06 | 0.899 | 0.504 | 0.491 | 0.469 | 0.423
NCI-H441 | 0.949 | 1.18 | 1.17 | 0.914 | 0.679 | 1.13 | 0.803 | 1.45 | 0.976 | 0.539 | 0.441 | 0.557 | 0.439 | 0.493 | 0.849 | 0.745 | 1.09 | 0.683
PC-14 | 1.05 | 1.07 | 1.09 | 0.997 | 0.943 | 1.02 | 1.01 | 1.15 | 0.976 | 1.02 | 1.02 | 1.07 | 1.02 | 1.01 | 0.701 | 0.541 | 0.96 | 0.527
HARA | 1.01 | 1.1 | 0.997 | 0.983 | 1.05 | 1.02 | 0.802 | 1.01 | 0.953 | 1.12 | 1.16 | 1.13 | 1.17 | 1.14 | 0.516 | 0.388 | 0.595 | 0.481
NCI-H2126 | 1.03 | 0.995 | 1.05 | 0.958 | 1.03 | 0.967 | 0.949 | 1.01 | 0.95 | 0.827 | 0.9 | 0.906 | 0.856 | 0.873 | 0.519 | 0.528 | 0.55 | 0.49
NCI-H1437 | 1.05 | 0.961 | 1.04 | 0.972 | 1 | 0.997 | 0.966 | 1.07 | 0.984 | 1.11 | 1.09 | 1.11 | 1.09 | 1.17 | 0.341 | 0.264 | 0.422 | 0.309
NCI-H1792 | 1.14 | 1.21 | 0.805 | 0.811 | 0.928 | 0.987 | 0.779 | 1.19 | 0.962 | 0.716 | 0.719 | 0.787 | 0.486 | 0.542 | 0.275 |  | 0.444 | 0.344
ChaGo-K-1 | 0.979 | 0.995 | 1.07 | 1 | 1.02 | 0.998 | 0.962 | 1.18 | 0.976 | 1.17 | 0.99 | 0.963 | 0.96 | 0.879 | 0.449 | 0.388 | 0.509 | 0.48
COR-L23 | 1.02 | 0.913 | 1.19 | 1.03 | 0.723 | 1.03 | 1.01 | 1.18 | 0.877 | 0.77 | 1.05 | 1.12 | 0.851 | 0.401 | 0.5 | 0.487 | 0.512 | 0.414
COR-L 105 | 0.87 | 1.06 | 0.866 | 0.838 | 0.687 | 1.05 | 0.814 | 1.03 | 0.825 | 0.757 | 0.962 | 0.689 | 0.688 | 0.549 | 0.481 | 0.412 | 0.52 | 0.37
LK-2 | 0.98 | 1.02 | 1.11 | 0.936 | 0.832 | 0.961 | 0.825 | 1.31 | 1.02 | 0.9 | 0.85 | 0.818 | 0.888 | 0.772 | 0.526 | 0.198 | 0.498 | 0.629
201T | 1.03 | 0.983 | 1.04 | 0.946 | 0.997 | 1.02 | 0.932 | 1.02 | 1.01 | 1.28 | 1.15 | 1.18 | 1.2 | 1.19 | 0.503 | 0.414 | 0.481 | 0.416
HCC-44 | 1.02 | 0.986 | 0.992 | 1.01 | 0.985 | 1.03 | 0.998 | 0.981 | 1.01 | 0.907 | 0.967 | 1.08 | 0.96 | 1.04 | 0.302 | 0.177 | 0.292 | 0.184
NCI-H647 | 1 | 1.08 | 1.17 | 1.03 | 0.951 | 0.987 | 0.886 | 1.37 | 0.893 | 1.17 | 1.3 | 1.49 | 1.18 | 1.19 | 0.646 | 0.596 | 0.758 | 0.385
H3255 | 0.953 | 0.999 | 1.02 | 1.01 | 1.12 | 0.969 | 0.896 | 1.02 | 0.907 | 0.575 | 0.603 | 0.512 | 0.504 | 0.512 | 0.42 | 0.337 |  | 0.352
